In one data set the test system is GH3-TRE-Luc cell line. As to conditions: read-out: AC50 (uM) modified / 1000, viability, 1 nM T3 present, 24 h.
The next data set in a line: in vitro. The following applies: rat, gh3-tre-luc cells, AC50 (uM) modified / 1000.

Each structure is given as a SMILES string. Where a name gives a salt, the structure may show the parent alone. Read-outs that look alike come from different tables or passages of the source.

With `CCCCCCCCOC(=O)c1ccc(O)cc1` [Octylparaben], in the data set with GH3-TRE-Luc cell line (Tox21_110001=Tox21_303430), the CC50 stood at 46 µM. Besides, the CC50 at 24 h in the data set “in vitro” worked out at 60.4 µM.
Regarding `CC1(C)[C@@H](O)CC[C@]2(C)[C@H]3C(=O)C=C4[C@@H]5C[C@@](C)(C(=O)O)CC[C@]5(C)CC[C@@]4(C)[C@]3(C)CC[C@@H]12` [Glycyrrhetinic acid], the CC50 turned out to be 24.8 µM in the data set with GH3-TRE-Luc cell line (Tox21_110001=Tox21_110804) and 19.8 µM in the data set on GH3-TRE-Luc cell line (Tox21_110001=Tox21_112726). For the same compound, the CC50 at 24 h in the data set “in vitro” stood at 28 µM.
As for `O=C(c1cc(O)c(O)c(O)c1)c1ccc(O)c(O)c1O` [Exifone], the CC50 with GH3-TRE-Luc cell line (Tox21_110001=Tox21_303559) came to 62.8 µM. Also, in “in vitro”, the CC50 at 24 h is 43.6 µM.
In the case of `CC(C)(C)c1ccc(O)c(C(C)(C)C)c1` [2,4-Di-tert-butylphenol], in the data set with GH3-TRE-Luc cell line (Tox21_110001=Tox21_300114), the CC50 was 29.7 µM. The compound further yielded a CC50 at 24 h in the data set “in vitro” of 47.6 µM.
With `Nc1ccc([N+](=O)[O-])cc1N` [4-Nitro-1,2-phenylenediamine], in the data set on GH3-TRE-Luc cell line (Tox21_110001=Tox21_302811), the CC50 was 26.4 µM. In the data set “in vitro”, this compound showed a CC50 at 24 h of 21.8 µM.
Consider `O=S(=O)(O)c1ccc(N=Nc2c(O)ccc3cc(S(=O)(=O)O)ccc23)cc1` [FD&C Yellow 6], for which the CC50 in the data set on GH3-TRE-Luc cell line (Tox21_110001=Tox21_300407) was found to be 65.1 µM. The same compound came in with a CC50 at 24 h in the data set “in vitro” of 38.5 µM.
`O=C(Nc1ccccc1SSc1ccccc1NC(=O)c1ccccc1)c1ccccc1` [2,2'-Dibenzoylaminodiphenyl disulfide]: the CC50 with GH3-TRE-Luc cell line (Tox21_110001=Tox21_303466) is 72.6 µM. In “in vitro”, this compound gave a CC50 at 24 h of 89.8 µM.
Turning to `OCCN1CCN(CCCN2c3ccccc3C=Cc3ccccc32)CC1` [Opipramol dihydrochloride], in the data set on GH3-TRE-Luc cell line (Tox21_110001=Tox21_113153), the CC50 was determined as 8.37 µM. The compound further registered a CC50 at 24 h in the data set “in vitro” of 6.78 µM.
`Oc1c(Cl)cc(Cl)c(Cl)c1Cc1c(O)c(Cl)cc(Cl)c1Cl` [Hexachlorophene]: the CC50 amounted to 14.8 µM with GH3-TRE-Luc cell line (Tox21_110001=Tox21_111099) and 22.4 µM in the data set on GH3-TRE-Luc cell line (Tox21_110001=Tox21_302741). For the same compound, the CC50 at 24 h in “in vitro” was 17.1 µM.
In the case of `CC(C)(c1ccccc1)c1ccc(O)cc1` [4-Cumylphenol], the CC50 with GH3-TRE-Luc cell line (Tox21_110001=Tox21_300056) was determined as 51 µM. Moreover, in the data set “in vitro”, the CC50 at 24 h was 45.2 µM.
On to `C=C1CC[C@H](O)C/C1=C/C=C1\CCC[C@]2(C)[C@@H]([C@H](C)/C=C/[C@H](C)C(C)C)CC[C@@H]12` [Ergocalciferol], for which, in the data set on GH3-TRE-Luc cell line (Tox21_110001=Tox21_302752), the CC50 was 77.9 µM. Moreover, in the data set “in vitro”, the CC50 at 24 h is 42.5 µM.
As to `Cc1cc(N=Nc2ccccc2C)ccc1N` [2-Amino-5-azotoluene], the CC50 with GH3-TRE-Luc cell line (Tox21_110001=Tox21_300300) is 40.4 µM. The compound also showed a CC50 at 24 h in “in vitro” of 50.9 µM.
In the case of `OC(CCN1CCCCC1)(c1ccccc1)C1CC2C=CC1C2` (stereo not drawn) [Biperiden hydrochloride], the CC50 in the data set on GH3-TRE-Luc cell line (Tox21_110001=Tox21_113064) was 27 µM. The compound further came in with a CC50 at 24 h in the data set “in vitro” of 22.6 µM.
For the compound `c1ccc(Nc2ccc3ccccc3c2)cc1` [N-Phenyl-2-naphthylamine], the CC50 with GH3-TRE-Luc cell line (Tox21_110001=Tox21_302900) was above 90 µM. The same compound returned a CC50 at 24 h in the data set “in vitro” of 47.3 µM.
For the compound `Cc1cc(O)c2c(c1)C(=O)c1cc(O)cc(O)c1C2=O` [Emodin], the CC50 with GH3-TRE-Luc cell line (Tox21_110001=Tox21_303218) is 34.9 µM. The compound further gave a CC50 at 24 h in “in vitro” of 29.1 µM.
Consider `O=C1NCCN1CCN1CCC(c2cn(-c3ccc(F)cc3)c3ccc(Cl)cc23)CC1` [Sertindole], for which the CC50 in the data set with GH3-TRE-Luc cell line (Tox21_110001=Tox21_113421) turned out to be 6.74 µM. Further, the CC50 at 24 h in “in vitro” came to 5.55 µM.
Turning to `C(=NC1CCCCC1)=NC1CCCCC1` [Dicyclohexylcarbodiimide], the CC50 in the data set with GH3-TRE-Luc cell line (Tox21_110001=Tox21_303237) is 49.8 µM. Also, the CC50 at 24 h in “in vitro” is above 90 µM.
For `N#C/C(=C1/SC[C@@H](c2ccc(Cl)cc2Cl)S1)n1ccnc1` [Luliconazole], the CC50 in the data set with GH3-TRE-Luc cell line (Tox21_110001=Tox21_112974) stood at 40.6 µM. The same compound showed a CC50 at 24 h in the data set “in vitro” above 50 µM.
`C[C@H](CCC(=O)O)[C@H]1CC[C@H]2[C@@H]3CC[C@@H]4C[C@H](O)CC[C@]4(C)[C@H]3CC[C@]12C` [Lithocholic acid]: the CC50 in the data set on GH3-TRE-Luc cell line (Tox21_110001=Tox21_302791) was 47.9 µM. In the data set “in vitro”, this compound came in with a CC50 at 24 h of 24.5 µM.
For the compound `OC(c1ccc(Cl)cc1)(c1cncnc1)c1ccccc1Cl` (stereo not drawn) [Fenarimol], in the data set on GH3-TRE-Luc cell line (Tox21_110001=Tox21_300650), the CC50 is 82.8 µM. Further, in the data set “in vitro”, the CC50 at 24 h was above 90 µM.
As for `CC(=O)OC/C=C(C)/C=C/C=C(C)/C=C/C1=C(C)CCCC1(C)C` [Retinol acetate], the CC50 in the data set with GH3-TRE-Luc cell line (Tox21_110001=Tox21_201423) turned out to be 65.7 µM. For the same compound, the CC50 at 24 h in the data set “in vitro” was above 50 µM.
As to `CCCCCCCCn1sccc1=O` [Octhilinone], the CC50 in the data set with GH3-TRE-Luc cell line (Tox21_110001=Tox21_300566) is 3.8 µM. Besides, the CC50 at 24 h in “in vitro” came to 5.52 µM.
For the compound `CC(C)CC(C)(c1ccc(O)cc1)c1ccc(O)cc1` [4,4'-(4-Methylpentane-2,2-diyl)diphenol], in the data set on GH3-TRE-Luc cell line (Tox21_110001=Tox21_303608), the CC50 came to 34 µM. In addition, the CC50 at 24 h in the data set “in vitro” was 41.6 µM.
As to `C=C1CC[C@H](O)C/C1=C/C=C1\CCC[C@]2(C)[C@@H]([C@H](C)CCCC(C)C)CC[C@@H]12` [Vitamin D3], the CC50 in the data set with GH3-TRE-Luc cell line (Tox21_110001=Tox21_111578) stood at 24.3 µM. In addition, in the data set “in vitro”, the CC50 at 24 h was found to be 44.3 µM.
Consider `CC(=O)[C@]1(O)Cc2c(O)c3c(c(O)c2[C@@H](O[C@H]2C[C@H](N)[C@H](O)[C@H](C)O2)C1)C(=O)c1c(O)cccc1C3=O` [Carminomycin], for which the CC50 in the data set on GH3-TRE-Luc cell line (Tox21_110001=Tox21_111978) was found to be 0.212 µM. Besides, the CC50 at 24 h in the data set “in vitro” was 0.177 µM.
As to `Oc1c(Cl)cc(Cl)c(Cl)c1Cl` [2,3,4,6-Tetrachlorophenol], in the data set on GH3-TRE-Luc cell line (Tox21_110001=Tox21_302932), the CC50 came to 64.3 µM. This compound also came in with a CC50 at 24 h in the data set “in vitro” of 71.8 µM.
For the compound `O=c1cc(-c2ccc(O)cc2)oc2cc(O)cc(O)c12` [Apigenin], the CC50 with GH3-TRE-Luc cell line (Tox21_110001=Tox21_302884) worked out at 77.9 µM. Besides, the CC50 at 24 h in the data set “in vitro” worked out at 42.3 µM.
Take `CC(C)(C)c1ccc(O)c(O)c1` [4-tert-Butylcatechol]: the CC50 with GH3-TRE-Luc cell line (Tox21_110001=Tox21_400003) came out at 49.3 µM. For the same compound, in the data set “in vitro”, the CC50 at 24 h was determined as 43 µM.
Consider `C#C[C@]1(OC(C)=O)CC[C@H]2[C@@H]3CCC4=C[C@@H](OC(C)=O)CC[C@@H]4[C@H]3CC[C@@]21C` [Ethynodiol diacetate], for which, in the data set on GH3-TRE-Luc cell line (Tox21_110001=Tox21_112924), the CC50 is 44.6 µM. The compound further returned a CC50 at 24 h in the data set “in vitro” of 45 µM.
With `Oc1ccc(/C=C/c2cc(O)cc(O)c2)cc1` [Resveratrol], in the data set with GH3-TRE-Luc cell line (Tox21_110001=Tox21_303376), the CC50 turned out to be 36.1 µM. For the same compound, the CC50 at 24 h in “in vitro” came to 35 µM.
On to `N#Cc1nn(-c2c(Cl)cc(C(F)(F)F)cc2Cl)c(N)c1[S+]([O-])C(F)(F)F` (stereo not drawn) [Fipronil], for which the CC50 in the data set with GH3-TRE-Luc cell line (Tox21_110001=Tox21_111300) was 36.1 µM. In “in vitro”, this compound returned a CC50 at 24 h of 49.6 µM.
Regarding `c1cc(N(CC2CO2)CC2CO2)ccc1OCC1CO1` (stereo not drawn) [4-(Diglycidylamino)phenyl glycidyl ether], the CC50 in the data set with GH3-TRE-Luc cell line (Tox21_110001=Tox21_302646) stood at 25.4 µM. Besides, the CC50 at 24 h in the data set “in vitro” stood at 30.4 µM.
Take `O=C(CCCCCCC(=O)Nc1ccccc1)NO` [Suberoylanilide hydroxamic acid]: the CC50 in the data set on GH3-TRE-Luc cell line (Tox21_110001=Tox21_112605) came out at 2.46 µM. Besides, the CC50 at 24 h in “in vitro” worked out at 2.15 µM.
As to `Nc1ccc(N)cc1` [1,4-Benzenediamine], the CC50 in the data set with GH3-TRE-Luc cell line (Tox21_110001=Tox21_302943) was 68.9 µM. The same compound yielded a CC50 at 24 h in the data set “in vitro” of 68.8 µM.
As to `c1ccc(Nc2cccc3ccccc23)cc1` [N-Phenyl-1-naphthylamine], the CC50 in the data set on GH3-TRE-Luc cell line (Tox21_110001=Tox21_303075) was determined as 61.1 µM. Moreover, the CC50 at 24 h in the data set “in vitro” amounted to 64.9 µM.

(Values after PMC6792352, “Limited Chemical Structural Diversity Found to Modulate Thyroid Hormone Receptor in the Tox21 Chemical Library” (Environmental Health Perspectives, 2019).)
